Laboratory results as given in US6784201B2, “Benzothiepines having activity as inhibitors of ileal bile acid transport and taurocholate uptake” (G.D. Searle & Company, priority 1994, dated 2004).
Where two headings read alike, the source gives them in different places.

Biological target: T1, human IBAT (Homo sapiens, UniProt Q12908)
T1 construct: expressed in transfected cells; host or cells: Baby hamster kidney (BHK) cells, clone H14
T1 sequence (Q12908 1-348): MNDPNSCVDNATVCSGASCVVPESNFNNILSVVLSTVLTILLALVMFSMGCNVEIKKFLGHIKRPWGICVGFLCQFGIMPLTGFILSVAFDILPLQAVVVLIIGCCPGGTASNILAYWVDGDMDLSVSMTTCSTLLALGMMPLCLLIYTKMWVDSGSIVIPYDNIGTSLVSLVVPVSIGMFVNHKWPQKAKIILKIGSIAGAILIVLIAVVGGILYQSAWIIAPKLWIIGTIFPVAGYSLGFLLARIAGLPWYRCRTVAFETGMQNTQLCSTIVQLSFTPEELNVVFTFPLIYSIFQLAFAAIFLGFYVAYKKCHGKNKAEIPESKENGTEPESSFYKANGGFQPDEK
Assay: In vitro assay of IBAT-mediated uptake of [14C]-taurocholate (TC) in H14 cells
Format: cell-based
Conditions: for inhibition at 100 µM: read-out: In vitro % Inhibition of TC Uptake @ 100 uM
Procedure: In Vitro Assay of Compounds that Inhibit IBAT-Mediated Uptake of [^14C]-Taurocholate (TC) in H14 Cells
Baby hamster kidney cells (BHK) transfected with the cDNA of human IBAT (H14 cells) are seeded at 60,000 cells/well in 96 well Top-Count tissue culture plates for assays run within in 24 hours of seeding, 30,000 cells/well for assays run within 48 hours, and 10,000 cells/well for assays run within 72 hours.
On the day of assay, the cell monolayer is gently washed once with 100 μl assay buffer (Dulbecco's Modified Eagle's medium with 4.5 g/L glucose+0.2% (w/v) fatty acid free bovine serum albumin-(FAF)BSA). To each well 50 μl of a two-fold concentrate of test compound in assay buffer is added along with 50 μl of 6 μM [^14C]-taurocholate in assay buffer (final concentration of 3 μM [^14C]-taurocholate). The cell culture plates are incubated 2 hours at 37° C. prior to gently washing each well twice with 100 μl 4° C. Dulbecco's phosphate-buffered saline (PBS) containing 0.2% (w/v) (FAF)BSA. The wells are then gently washed once with 100 μl 4° C. PBS without (FAF)BSA. To each 200 μl of liquid scintillation counting fluid is added, the plates are heat sealed and shaken for 30 minutes at room temperature prior to measuring the amount of radioactivity in each well on a Packard Top-Count instrument.

[1] = H14 cells, Table 5, read-out: IC50 uM (In vitro Taurocholate Cell Uptake)

Compound | IC50 (read-out: Human TC IC50) [µM] | further results
8b-Phenyl-1a,2,3,8b-tetrahydrospiro(benzothiepino[4,5-b]oxirene-2,1′-cyclohexane)-4,4-dioxide [Example 58] | – | In vitro % Inhibition of TC Uptake (50 μM): 88%
CCCC[C@]1(CC)CSc2ccccc2[C@H](c2ccccc2)C1=O (relative stereo) [Example 4a, cis-3-Butyl-3-ethyl-5-phenyl-2,3-dihydrobenzothiepin-(5H)4-one] | – | inhibition at 100 µM: 3%
CCCC[C@]1(CC)CSc2ccccc2[C@@H](c2ccccc2)C1=O (relative stereo) [Example 4b, trans-3-Butyl-3-ethyl-5-phenyl-2,3-dihydro-benzothiepin-(5H)4-one] | – | inhibition at 100 µM: 9%
CCCC[C@]1(CC)CS(=O)(=O)c2ccccc2[C@H](c2ccccc2)C1=O (relative stereo) [Example 5a, cis-3-Butyl-3-ethyl-5-phenyl-2,3-dihydrobenzothiepin-(5H) 4-one-1,1-dioxide] | – | inhibition at 100 µM: 34%
O=S1(=O)CC2(CCCCC2)[C@@H](O)[C@H](c2ccccc2)c2ccccc21 (relative stereo) [Example 59, trans-4-Hydroxy-5-phenyl-2,3,4,5-tetrahydro spiro(benzothiepine-3,1′-cyclohexane)-1,1-dioxide] | – | IC50 [1]: 70 µM
CCCCC1(CC)CS(=O)(=O)c2ccccc2C(Sc2ccccc2)C1O (single isomer, unassigned) [Example 21b, 3-Butyl-3-ethyl-4-hydroxy-5-phenylthio-2,3,4,5-tetrahydro-benzothiepine-1,1-dioxide] | – | In vitro % Inhibition of TC Uptake @ 100 uM: 45%
CCCCC1(CC)CS(=O)(=O)c2ccccc2C(Sc2ccccc2)C1O (single isomer, unassigned) [Example 21c, 3-Butyl-3-ethyl-4-hydroxy-5-phenylthio-2,3,4,5-tetrahydro-benzothiepine-1,1-dioxide] | – | In vitro % Inhibition of TC Uptake @ 100 uM: 52%
CCCCC1(CC)CS(=O)(=O)c2ccc(NC(=O)OCc3ccccc3)cc2C(c2ccc(OC)cc2)C1O (single isomer, unassigned) [Example 115] | 8 | –
CCCCC1(CC)CS(=O)(=O)c2ccc(N)cc2C(c2ccccc2)C1O (single isomer, unassigned) [Example 122] | 1.07 | –
CCCCC1(CC)CS(=O)(=O)c2ccc(N)cc2C(c2ccc(F)cc2)C1O (single isomer, unassigned) [Example 127] | 0.55 | –
CCCCC1(CC)CS(=O)(=O)c2ccc(SC)cc2C(c2cccc(OC)c2)C1O (single isomer, unassigned) [Example 142] | 0.5 | –
CCCCC1(CC)CS(=O)(=O)c2ccc(OC)cc2C(c2cccc(OC)c2)C1O (single isomer, unassigned) [Example 263] | 0.7 | –
CCCCC1(CC)CS(=O)(=O)c2ccc(OC)cc2C(c2cccc(C(F)(F)F)c2)C1O (single isomer, unassigned) [Example 265] | 2 | –
CCCCC1(CC)CS(=O)(=O)c2ccc(Br)cc2C(c2cccc(OC)c2)C1O (single isomer, unassigned) [Example 272] | 0.7 | –
CCCCC1(CC)CS(=O)(=O)c2ccc(F)cc2C(c2ccc(F)cc2)C1O (single isomer, unassigned) [Example 273] | 1.9 | –
CCCCC1(CC)CS(=O)(=O)c2ccc(C)cc2C(c2ccc(F)cc2)C1O (single isomer, unassigned) [Example 283] | 0.35 | –
CCCCC1(CCCC)CS(=O)(=O)c2ccc(N(C)C)cc2C(c2ccccc2)C1O (single isomer, unassigned) [Example 1200] | 6.1 | –
CCCCC1(CCCC)CS(=O)(=O)c2c(cccc2N2CCOCC2)C(c2ccc(OC)cc2)C1O (single isomer, unassigned) [Example 1212] | 0.39 | –
CCCCC1(CC)CS(=O)(=O)c2ccc(N(C)C)cc2C(c2ccc(OC)c(F)c2)C1O (single isomer, unassigned) [Example 1213] | 1.7 | –
CCCCC1(CCCC)CS(=O)(=O)c2c(cccc2N(C)C)C(c2ccsc2)C1O (single isomer, unassigned) [Example 1232] | 1.2 | –
CCCCC1(CC)CS(=O)(=O)c2ccc(N(C)C)cc2C(c2ccccc2)C1O (single isomer, unassigned) [Example 1259] | – | IC50 (Human TC IC50): 16.5 µM
CCCCC1(CC)CS(=O)(=O)c2ccc(N(C)C)cc2C(c2ccccc2)C1O (single isomer, unassigned) [Example 1300] | – | IC50 (Human TC IC50): 1 µM
CCCCC1(CCCC)CS(=O)(=O)c2c(cccc2N2CCOCC2)C(c2ccc(OC)cc2)C1O (single isomer, unassigned) [Example 1307] | 3.1 | –
CCCCC1(CC)CS(=O)(=O)c2ccc(NO)cc2C(c2ccccc2)C1O (single isomer, unassigned) [Example 1311] | 3.27 | –
CCCCC1(CC)C=C(c2ccccc2)c2ccccc2SC1 (stereo not drawn) [Example 3, 3-Butyl-3-ethyl-5-phenyl-2,3-dihydrobenzothiepine] | – | inhibition at 100 µM: 0%
CCCC[C@]1(CC)CS(=O)(=O)c2ccccc2[C@@H](c2ccccc2)[C@@H]1O [Example 6a, (3α,4α,5β) 3-Butyl-3-ethyl-4-hydroxy-5-phenyl-2,3,4,5-tetrahydrobenzothiepine-1,1-dioxide] | – | IC50 [1]: 5 µM
CCCC[C@]1(CC)CS(=O)(=O)c2ccccc2[C@H](c2ccccc2)[C@H]1O [Example 6b, (3α,4β,5α) 3-Butyl-3-ethyl-4-hydroxy-5-phenyl-2,3,4,5-tetrahydro-benzothiepine-1,1-dioxide] | – | inhibition at 100 µM: 85%
CCCC[C@]1(CC)CS(=O)(=O)c2ccccc2[C@@]2(c3ccccc3)O[C@@H]12 [Example 8a, (1aα,2β,8bα) 2-Butyl-2-ethyl-8b-phenyl-1α,2,3,8b-tetrahydro-benzothiepino[4,5-b]oxirene-4,4-dioxide] | – | inhibition at 100 µM: 41%

Continued by falling IC50 (read-out: Human TC IC50), values first:

IC50 (read-out: Human TC IC50) [µM] | Compound | further results
0.3 | CCCCC1(CC)CS(=O)(=O)c2ccc(NC(=O)OCc3ccccc3)cc2C(c2ccc(OC)cc2)C1O (single isomer, unassigned) [Example 116] | –
0.26 | CCCCC1(CC)CS(=O)(=O)c2ccc(NO)cc2C(c2ccccc2)C1O (single isomer, unassigned) [Example 1314] | –
0.2 | CCCCC1(CC)CS(=O)(=O)c2ccc(OC)cc2C(c2cccc(C(F)(F)F)c2)C1O (single isomer, unassigned) [Example 264] | –
0.18 | CCCCC1(CC)CS(=O)(=O)c2ccc(F)cc2C(c2ccc(F)cc2)C1O (single isomer, unassigned) [Example 274] | –
0.12 | CCCCC1(CC)CS(=O)(=O)c2ccc(N(C)C)cc2C(c2cccc(C)c2)C1O (single isomer, unassigned) [Example 1225] | –
0.071 | CCCCC1(CC)CS(=O)(=O)c2ccc(N(C)C)cc2C(c2ccc(O)cc2)C1O (single isomer, unassigned) [Example 1287] | –
0.07 | CCCCC1(CC)CS(=O)(=O)c2ccc(OC)cc2C(c2cccc(OC)c2)C1O (single isomer, unassigned) [Example 262] | –
0.07 | CCCCC1(CC)CS(=O)(=O)c2ccc(Br)cc2C(c2cccc(OC)c2)C1O (single isomer, unassigned) [Example 271] | –
0.068 | CCCCC1(CC)CS(=O)(=O)c2ccc(N)cc2C(c2ccccc2)C1O (single isomer, unassigned) [Example 121] | –
0.035 | CCCCC1(CC)CS(=O)(=O)c2ccc(N)cc2C(c2ccc(F)cc2)C1O (single isomer, unassigned) [Example 129] | –
0.031 | CCCCC1(CC)CS(=O)(=O)c2ccc(N(C)C)cc2C(c2ccc(OC)c(F)c2)C1O (single isomer, unassigned) [Example 1151] | –
0.03 | CCCCC1(CC)CS(=O)(=O)c2ccc(SC)cc2C(c2cccc(OC)c2)C1O (single isomer, unassigned) [Example 143] | –
0.027 | CCCCC1(CCCC)CS(=O)(=O)c2ccc(N(C)C)cc2C(c2ccc(OC)c(F)c2)C1O (single isomer, unassigned) [Example 1143] | –
0.021 | CCCCC1(CC)CS(=O)(=O)c2ccc(C)cc2C(c2ccc(F)cc2)C1O (single isomer, unassigned) [Example 282] | –
0.0093 | CCCCC1(CC)CS(=O)(=O)c2ccc(N(C)C)cc2C(c2cccc(C)c2)C1O (single isomer, unassigned) [Example 1116] | –
0.0045 | CCCCC1(CC)CS(=O)(=O)c2ccc(N(C)C)cc2C(c2ccc(O)cc2)C1O (single isomer, unassigned) [Example 1078] | –
0.004 | CCCCC1(CCCC)CS(=O)(=O)c2c(cccc2N(C)C)C(c2ccsc2)C1O (single isomer, unassigned) [Example 1067] | –
